{
  "source": "patent US12317897B2",
  "about": "“Methods of controlling or preventing infestation of vegetable, tomato and potato plants by phytopathogenic microorganisms” (SYNGENTA CROP PROTECTION AG, priority 2017, dated 2025)",
  "assay_type_in_all_cases": "in vivo",
  "key": {"Fusarium oxysporum [1]": {"tested_on": "Fusarium oxysporum", "experiment": "Fusarium oxysporum in tomato, greenhouse trial, drench at planting", "conditions": "100 g AI/ha, 132 days after planting", "protocol": "Fusarium oxysporum in Tomato:\nA tomato greenhouse trial was carried out in Sanlucar de Barrameda, Cadiz, Spain in 2017 to evaluate the efficacy of different compounds against Fusarium oxysporum in tomato.\nThree week old tomato plants were transplanted on Apr. 7, 2017 and the afterwards drench applied with the compounds using a water volume of 100 ml per plant.\nIn order to increase the disease pressure 60 ml Fusarium oxysporum suspension with a concentration of 1′000′000 spores per milliliter of water was drenched directly in the planting hole were the plants will be transplanted the next day. The assessment on disease incidence and was done 132 days after transplanting on Aug. 17, 2017.\nAssessments: Pest Incidence, 132 Days after Planting"}, "Fusarium oxysporum [2]": {"tested_on": "Fusarium oxysporum", "experiment": "Fusarium oxysporum in melon, greenhouse trial, drench at planting", "conditions": "60 g AI/ha, 69 days after planting", "protocol": "Fusarium oxysporum in Melon:\nA melon greenhouse trial was carried out in El Ejido, Almeria, Spain in 2017 to evaluate the efficacy of different compounds against Fusarium oxysporum in melon.\nThe melon transplants were planted on May 5, 2017 and the afterwards drench applied with the compounds using a water volume of 100 ml per plant.\nIn order to increase the disease pressure each plot has been inoculated with 900 ml Fusarium oxysporum suspension with a concentration of 100′000 spores per millilitre of water three days before transplanting. The first disease symptoms were visible three weeks after transplanting and an assessment on disease severity and was done 69 days after transplanting on Jul. 13, 2017.\nAssessments: Pest Severity, 69 Days after Planting"}, "Alternaria solani": {"tested_on": "Alternaria solani", "experiment": "Alternaria solani (early blight) on potato, field trial, in-furrow spray at planting", "conditions": "250 g AI/ha, 89 days after planting", "protocol": "Alternaria solani on Potato: A potato field trial was carried out in Tompkins, New York, USA in 2018 to evaluate the efficacy of different compounds against early blight disease caused by Alternaria solani. The potato tubers were applied in-furrow at planting by using boom sprayer with a flat fan nozzle. The disease occurred beginning of August and an assessment on disease severity and was done Sep. 5, 2018. [table] [table] [table] [table] [table] [table] Assessments: Pest Severity, 89 Days after Planting"}, "Fusarium oxysporum [3]": {"tested_on": "Fusarium oxysporum", "experiment": "Fusarium oxysporum on okra, field trial, drench at planting", "conditions": "375 g AI/ha, 60 days after planting", "protocol": "Fusarium oxysporum on Okra:\nAn okra field trial was carried out in Kuppanur, Coimbatore, India in 2018 to evaluate the efficacy of different compounds against Fusarium oxysporum in okra.\nThe okra seeds were planted on Jun. 29, 2018 and directly afterwards drench applied with the compounds using a water volume of 50 ml per plant. The disease occurred two weeks after planting and an assessment on disease incidence and was done Aug. 28, 2018.\nAssessments: Pest Incidence, 60 Days after Planting"}},
  "data": [
    {"smiles": "CON(C(=O)c1cn(C)nc1C(F)F)C(C)Cc1c(Cl)cc(Cl)cc1Cl", "note": "(centres unmarked) [COMPOUND 2 SC 200, PYDIFLUMETOFEN]", "values": [
      {"measurement": "Pest incidence (%)", "setting": "Fusarium oxysporum [1]; tomato Irati, CHECK 78.33", "result": "15.00, B %"},
      {"measurement": "% efficacy based on pest incidence", "setting": "Fusarium oxysporum [1]; tomato", "result": 80.85, "unit": "%"},
      {"measurement": "Pest severity (%)", "setting": "Fusarium oxysporum [2]; melon Brisa, CHECK 82.41", "result": "16.67, B %"},
      {"measurement": "% efficacy based on pest severity", "setting": "Fusarium oxysporum [2]; melon", "result": 79.77, "unit": "%"}
    ]},
    {"smiles": "O=C(NCCc1ncc(C(F)(F)F)cc1Cl)c1ccccc1C(F)(F)F", "note": "[COMPOUND 2 SC 500, Fluopyram]", "values": [
      {"measurement": "Pest severity (%)", "setting": "Alternaria solani; potato Red Norland, CHECK 97.25", "result": "19.75, C %"},
      {"measurement": "Emax at 250 g/ha", "setting": "Alternaria solani; Alternaria solani, 2136 h, potato, read-out: % efficacy based on pest severity", "result": 79.7, "unit": "%"},
      {"measurement": "Pest incidence (%)", "setting": "Fusarium oxysporum [3]; okra Samrat, CHECK 84.20", "result": "20.50, C %"},
      {"measurement": "Emax at 375 g/ha", "setting": "Fusarium oxysporum [3]; Fusarium oxysporum, in Abelmoschus esculentus, soil, 1440 h, okra, read-out: % efficacy based on pest incidence", "result": 75.7, "unit": "%"}
    ]}
  ]
}
